Results: patent US5294553A, “Method for the gravimetric determination of oil and grease” (priority 1993, dated 1994)
Read-outs that look alike come from different tables or passages of the source.

Assays:
[1] = cited from earlier work
[2] = Table 1A, cited from earlier work
[3] = cited from earlier work; remark: listed apart in the source
Rat = settings: inhalation, Table 1B; cited from earlier work
[4] = Amount of No. 6 Fuel dissolved; format: physicochemical; settings: for Amount of No. 6 Fuel Dissolved: Table 1B
[5] = cited from earlier work; remark: listed apart in the source

For `c1ccccc1` [Benzene], the “ε, Dielectric Constant” value ([1]; Table 1A) is listed as 2.27 and the “Sol. in Water” value ([2]; in words) is listed as “sl. sol”.
For `CCC(C)=O` [Butanone], the “ε, Dielectric Constant” value ([1]; Table 1A) is listed as 18.5 and the “Sol. in Water” value ([2]; in words) is listed as “sol”.
In the case of `S=C=S` [Carbon disulfide], the “Boil Pt.” value ([3]; Table 1A) is listed as 46 °C and the “ε, Dielectric Constant” value ([1]; Table 1A) is listed as 2.64.
In the case of `ClC(Cl)(Cl)Cl` [Carbon tetrachloride], the “Boil Pt.” value ([3]; Table 1A) is given as 76 °C, the “Boil Pt.” value ([3]; Table 1B) is given as 76 °C and the “ε, Dielectric Constant” value ([1]; -20° C., Table 1B) is given as 2.238. For the same compound, the “ε, Dielectric Constant” value ([1]; Table 1A) was 2.24, the “Sol. in Water” value ([2]; in words) was “Vsl. sol” and the “LC50(ihl) -Rat” value (Rat) was 4,000 ppm.
For `ClC(Cl)Cl` [Chloroform], the “Boil Pt.” value ([3]; Table 1A) is given as 60 °C, the “Boil Pt.” value ([3]; Table 1B) is given as 60 °C and the “ε, Dielectric Constant” value ([1]; -20° C., Table 1B) is given as 4.80. For the same compound, the “ε, Dielectric Constant” value ([1]; Table 1A) was 4.81, the “Sol. in Water” value ([2]; in words) was “Vsl. sol” and the “LC50(ihl) -Rat” value (Rat) was 8,000 ppm.
In the case of `C1=CCCCC1` [Cyclohexene], the “Boil Pt.” value ([3]; Table 1A) is given as 82 °C, the “ε, Dielectric Constant” value ([1]; Table 1A) is given as 2.20 and the “Sol. in Water” value ([2]; in words) is given as “sl. sol”.
In the case of `C1CCCC1` [Cyclopentane], the “Boil Pt.” value ([3]; Table 1A) is given as 49 °C, the “ε, Dielectric Constant” value ([1]; Table 1A) is given as 1.965 and the “Sol. in Water” value ([2]; in words) is given as “sl. sol”.
In the case of `C1=CCCC1` [Cyclopentene], the “Boil Pt.” value ([3]; Table 1A) is given as less than 49 °C and the “ε, Dielectric Constant” value ([1]; Table 1A) is given as 2.20.
In the case of `CCOC(C)=O` [Ethyl acetate], the “Amount of No. 6 Fuel Dissolved” value [4] is given as 31.71%, the “Boil Pt.” value ([3]; Table 1A) is given as 77 °C and the “Boil Pt.” value ([3]; Table 1B) is given as 77 °C. The “ε, Dielectric Constant” value ([1]; -20° C., Table 1B) was 6.02, the “ε, Dielectric Constant” value ([1]; Table 1A) was 6.02 and the “Hazards, Comments” value ([5]; Table 1A, code numbers) was 44. For the same compound, the “Sol. in Water” value ([2]; in words) was “sl. sol” and the “LC50(ihl) -Rat” value (Rat) was 1,600 ppm.
In the case of `C=CC(=O)OCC` [Ethyl acrylate], the “Boil Pt.” value ([3]; Table 1A) is listed as 99 °C.
For `CCOCC` [Ethyl ether], the “Boil Pt.” value ([3]; Table 1A) is given as 34.6 °C, the “ε, Dielectric Constant” value ([1]; Table 1A) is given as 4.34 and the “Sol. in Water” value [2] is given as 7.5 g/100 g.
In the case of `CCSC` [Ethyl methyl sulfide], the “Boil Pt.” value ([3]; Table 1A) is given as 66 °C, the “ε, Dielectric Constant” value ([1]; Table 1A) is given as roughly 5.72 and the “Sol. in Water” value ([2]; in words) is given as “V. sl. sol”.
In the case of `CCSCC` [Ethyl sulfide], the “Boil Pt.” value ([3]; Table 1A) is listed as 91 °C, the “ε, Dielectric Constant” value ([1]; Table 1A) is listed as 5.72 and the “Sol. in Water” value ([2]; in words) is listed as “V. sl. sol”.
In the case of `FC(F)(Cl)C(F)(Cl)Cl` [FREON ®, 1,1,2-trichloro-1,2,2-trifluoroethane], the “Amount of No. 6 Fuel Dissolved” value [4] is given as 41.01%, the “Boil Pt.” value ([3]; Table 1A) is given as 50 °C and the “Boil Pt.” value ([3]; Table 1B) is given as 50 °C. The “Sol. in Water” value ([2]; in words) was “insol”.
In the case of `c1ccoc1` [Furan], the “Boil Pt.” value ([3]; Table 1A) is listed as 32 °C and the “Sol. in Water” value ([2]; in words) is listed as “sl. sol”.
In the case of `C=CCCCCC` [Heptene-1], the “Boil Pt.” value ([3]; Table 1A) is listed as 93 °C, the “ε, Dielectric Constant” value ([1]; Table 1A) is listed as “ca. 2.05” and the “Sol. in Water” value ([2]; in words) is listed as “ca. sl. sol”.
For `CCCCCC` [Hexane, n-hexane], the “solubility of No. 6 oil, in words” value ([4]; compared with hexane/methyl tertiary-butyl ether (80:20 v/v)) is listed as “much less soluble in hexane”, the “ε, Dielectric Constant” value ([1]; Table 1A) is listed as 1.89 and the “adverse effects on absorption through the skin” value ([5]; nervous system) is listed as “can be absorbed through the skin causing adverse effects to the nervous system, including a lack of feeling in the extremities and dizziness”. The “Sol. in Water” value ([2]; in words) was “insol”.
For `C=CCCCC` [Hexene-1], the “Boil Pt.” value ([3]; Table 1A) is listed as 63 °C, the “ε, Dielectric Constant” value ([1]; Table 1A) is listed as “ca. 2.05” and the “Sol. in Water” value ([2]; in words) is listed as “ca. sl. sol”.
In the case of `ClCCl` [Methyl chloride], the “Boil Pt.” value ([3]; Table 1B) is listed as 40 °C.
In the case of `CC1CCCC1` [Methyl cyclopentane], the “Boil Pt.” value ([3]; Table 1A) is given as 72 °C and the “Sol. in Water” value ([2]; in words) is given as “V. sl. sol”.
In the case of `CSC` [Methyl sulfide], the “Boil Pt.” value ([3]; Table 1A) is given as 37 °C, the “Boil Pt.” value ([3]; Table 1B) is given as 37 °C and the “ε, Dielectric Constant” value ([1]; -20° C., Table 1B) is given as 6.2. The “ε, Dielectric Constant” value ([1]; Table 1A) was 6.2 and the “Sol. in Water” value ([2]; in words) was “sl. sol”.
In the case of `COC(C)(C)C` [Methyl t-Butyl ether, methyl tertiary-butyl ether], the “Amount of No. 6 Fuel Dissolved” value [4] is given as 99.74%, the “Boil Pt.” value ([3]; Table 1A) is given as 55 °C and the “Boil Pt.” value ([3]; Table 1B) is given as 55 °C. The “ε, Dielectric Constant” value ([1]; -20° C., Table 1B) was 4.0, the “ε, Dielectric Constant” value ([1]; Table 1A) was “ca. 4.00” and the “Sol. in Water” value ([2]; in words) was “sl. sol”.
For `ClCCl` [Methylene Chloride], the “Boil Pt.” value ([3]; Table 1A) is listed as 40.2 °C and the “ε, Dielectric Constant” value ([1]; Table 1A) is listed as 9.08.
For `C=CCCC` [Pentene-1], the “Boil Pt.” value ([3]; Table 1A) is listed as 37 °C, the “ε, Dielectric Constant” value ([1]; Table 1A) is listed as 2.10 and the “Sol. in Water” value [2] is listed as 0.04%.
In the case of `c1ccsc1` [Thiophene], the “Boil Pt.” value ([3]; Table 1A) is given as 83 °C, the “ε, Dielectric Constant” value ([1]; Table 1A) is given as 2.76 and the “Sol. in Water” value ([2]; in words) is given as “sl. sol”.
For `C=COC(C)=O` [Vinyl acetate], the “Boil Pt.” value ([3]; Table 1A) is given as 72 °C and the “Sol. in Water” value ([2]; in words) is given as “sl. sol”.
In the case of `C=COC=C` [Vinyl ether], the “Boil Pt.” value ([3]; Table 1A) is given as 28 °C, the “ε, Dielectric Constant” value ([1]; Table 1A) is given as 3.94 and the “Sol. in Water” value ([2]; in words) is given as “sl. sol”.
In the case of `CO` [methyl alcohol], the “dielectric constant ε” value ([1]; alcohols) is given as 31.
